In patent US10023565B2, “N,N′ substituted piperidinamine compounds, and preparation method and usage thereof” (Institute of Pharmacology and Toxicology Academy of …, priority 2013, dated 2018):

Legend:
Experiment in all cases: Antitumor bioactivity evaluation, breast cancer cells (ATPlite)
[1] = system: BT474; type: cell-based; conditions: Homo sapiens, BT-474; test sample 5 μM, 72 hours; read-out: Inhibitory Rate % BT474
Experimental: (§1) Antitumor bioactivity evaluation of the compounds of Examples according to the method described below
(§2) Cells plating: a 100 mm culture dish with overgrown adherent cells was digested with 1 ml 0.25% trypsin (GIBCO) at 37° C. for 5 min, and the reaction was terminated with 2 ml culture medium (containing 10% FBS, GIBCO). The cells were scattered and collected, after counting, diluted to 1×10^5 cells/ml, and seeded into a 96-well plate at 50 μl/well, 5000 cells/well, excluding the peripheral circle of wells in which no cell was added, but PBS was added, 60 wells in total, and then incubated at 37° C. for 24 hours for adhering.
(§3) Addition of the compound and lapatinib: the test sample was diluted to a final concentration of 5 μM, and the culture medium with the corresponding compound solvent concentration was filled in the control well, the compound solvent concentration was kept consistent in each well, 5 parellel wells were set for each concentration, 25 μl each well, 25 μl culture medium (in combined group, 25 μl lapatinib was added till a final concentration of 1 μM) supplemented, followed by incubation at 37° C. for 72 hours.
(§4) Test after incubation at 37° C. for 72 hours: 50 μL of ATPlite kit substrate solution was added in each well, and vibrated for 3 min, followed by placing aside in darkness for 10 min, and then supernatant 100 μl/well was taken and placed on aluminescence test plate; the luminescence test plate that has been fully incubated was placed in a luminescence test instrument, to read luminescence value.
(§5) 1. Cell survival rate (%)=Experimental group RLU/control group RLU×100%. The experimental data were subjected to data analysis and processing by utilizing GraphPad software.

[2] = system: MDA-MB-361; type: cell-based; conditions: Homo sapiens, test sample 5 μM, 72 hours, read-out: Inhibitory Rate % MDA-MB-361
Experimental: as §1, §2, §3, §4, §5

[3] = system: MDA-MB-453; type: cell-based; conditions: Homo sapiens, test sample 5 μM, 72 hours, read-out: Inhibitory Rate % MDA-MB-453
Experimental: as §1, §2, §3, §4, §5

[4] = system: SK-BR3; type: cell-based; conditions: Homo sapiens, SK-BR-3; test sample 5 μM, 72 hours; read-out: Inhibitory Rate % SK-BR3
Experimental: as §1, §2, §3, §4, §5

[5] = system: SK/Lap^R1.0; type: cell-based; conditions: Homo sapiens; test sample 5 μM, 72 hours; read-out: Inhibitory Rate % SKLap^R1.0
Experimental: as §1, §2, §3, §4, §5

[6] = system: BT/Lap^R1.0; type: cell-based, human; conditions: Homo sapiens; test sample 5 μM, 72 hours; read-out: Inhibitory Rate % BT/Lap^R1.0
Experimental: as §1, §2, §3, §4, §5

Structure (SMILES) | inhibition at 5 µM [1] | inhibition at 5 µM [2] | inhibition at 5 µM [3] | inhibition at 5 µM [4] | inhibition at 5 µM [5] | inhibition at 5 µM [6]
COc1cc(N2CCC(N(C)Cc3c(Cl)cccc3Cl)CC2)ncn1 [Example 60, N-methyl-N-(2,6-dichlorobenzyl)-N-[1-(6-methoxypyrimidin-4-yl)piperidin-4-yl]amine] | 53.6% | 30.8% | 65.1% | 22.8% | 19.2% | 52.5%
COc1cc(N2CCC(N(C)Cc3ccc(F)cc3)CC2)ncn1 [Example 62, N-methyl-N-(4-fluorobenzyl)-N-[1-(6-methoxypyrimidin-4-yl)piperidin-4-yl]amine] | 7.8% | 4.9% | 5% | 7.6% | 5.7% | 8.1%
CN(Cc1ccc(F)cc1)C1CCN(Cc2cnc(Cl)s2)CC1 [Example 16, N-methyl-N-(4-fluorobenzyl)-N-{1-[(2-chlorothiazol-5-yl)methyl]piperidin-4-yl}amine] | 7.1% | -1.3% | 11% | 18.6% | -0.1% | 9%
COc1nccc(N2CCC(N(C)Cc3c(F)cccc3Cl)CC2)n1 [Example 54, N-methyl-N-(2-fluoro-6-chlorobenzyl)-N-[1-(2-methoxypyrimidin-4-yl)piperidin-4-yl]amine] | 65.4% | 48.3% | 64.7% | 27.7% | 17.2% | 62.4%
CCOc1ncc(CN2CCC(N(C)Cc3ccccc3Cl)CC2)s1 [Example 6, N-methyl-N-(2-chlorobenzyl)-N-{1-[(2-ethoxythiazol-5-yl)methyl]piperidin-4-yl}amine] | 10.1% | 33.3% | 36.4% | 12.6% | 0.6% | 13.3%
COc1cc(N2CCC(N(C)Cc3ccc(Cl)c(Cl)c3)CC2)ncn1 [Example 61, N-methyl-N-(3,4-dichlorobenzyl)-N-[1-(6-methoxypyrimidin-4-yl)piperidin-4-yl]amine] | 9.8% | 6.5% | 12.7% | 16.1% | 28% | 9.2%
CSc1nccc(N2CCC(N(C)Cc3ccc(Cl)c(Cl)c3)CC2)n1 [Example 38, N-methyl-N-(3,4-dichlorobenzyl)-N-[1-(2-methylthiopyrimidin-4-yl)piperidin-4-yl]amine] | 39.5% | 29.5% | 60% | 30.1% | 12.9% | 29.9%
COc1nccc(N2CCC(N(C)Cc3ccc(C#N)cc3)CC2)n1 [Example 48, N-methyl-N-(4-cyanobenzyl)-N-[1-(2-methoxypyrimidin-4-yl)piperidin-4-yl]amine] | 71.6% | 53.3% | 79.5% | 86.5% | 74.3% | 72.7%
COc1nccc(N2CCC(N(C)Cc3ccccc3Cl)CC2)n1 [Example 43, N-methyl-N-(2-chlorobenzyl)-N-[1-(2-methoxypyrimidin-4-yl)piperidin-4-yl]amine] | 61% | 45.7% | 69.3% | 19.3% | 29.4% | 56.9%
CSc1ncc(CN2CCC(N(C)Cc3ccc(F)cc3)CC2)s1 [Example 29, N-methyl-N-(4-fluorobenzyl)-N-{1-[(2-methylthiothiazol-5-yl)methyl]piperidin-4-yl}amine] | 54.4% | 32.8% | 67.4% | 40.9% | 11.7% | 50.5%
COc1nccc(N2CCC(N(C)Cc3ccccc3C#N)CC2)n1 [Example 50, N-methyl-N-(2-cyanobenzyl)-N-[1-(2-methoxypyrimidin-4-yl)piperidin-4-yl]amine] | 27.5% | 22% | 50.6% | 24.7% | 11.7% | 22.7%
CCOc1ncc(CN2CCC(N(C)Cc3cccc(Cl)c3)CC2)s1 [Example 1, N-methyl-N-m-chlorobenzyl-N-{1-[(2-ethoxythiazol-5-yl)methyl]piperidin-4-yl}amine] | 14.4% | 14.2% | 41.2% | 16.7% | 5.2% | 12.5%
COc1cc(N2CCC(N(C)Cc3ccc(C)cc3)CC2)ncn1 [Example 59, N-methyl-N-(4-methylbenzyl)-N-[1-(6-methoxypyrimidin-4-yl)piperidin-4-yl]amine] | 5% | 10.6% | 13.4% | 20.6% | 22% | 8%
CN(Cc1cccc(Cl)c1)C1CCN(Cc2cnc(Cl)s2)CC1 [Example 18, N-methyl-N-(3-chlorobenzyl)-N-{1-[(2-chlorothiazol-5-yl)methyl]piperidin-4-yl}amine] | 7.1% | 9.7% | 12.6% | 15.5% | 8.5% | 8.4%
COc1nccc(N2CCC(N(C)Cc3cc(Cl)ccc3Cl)CC2)n1 [Example 52, N-methyl-N-(2,5-dichlorobenzyl)-N-[1-(2-methoxypyrimidin-4-yl)piperidin-4-yl]amine] | 74.2% | 64.1% | 68.7% | 87.6% | 80.7% | 68.1%
COc1cc(N2CCC(N(C)Cc3cc(Cl)ccc3Cl)CC2)ncn1 [Example 67, N-methyl-N-(2,5-dichlorobenzyl)-N-[1-(6-methoxypyrimidin-4-yl)piperidin-4-yl]amine] | 45.9% | 27.6% | 61.1% | 29.2% | 9.4% | 32.1%
CSc1nccc(N2CCC(N(C)Cc3ccccc3C#N)CC2)n1 [Example 41, N-methyl-N-(2-cyanobenzyl)-N-[1-(2-methylthiopyrimidin-4-yl)piperidin-4-yl]amine] | 69.2% | 55.7% | 66.6% | 38.9% | 42% | 65.8%
CSc1nccc(N2CCC(N(C)Cc3ccc(C)cc3)CC2)n1 [Example 42, N-methyl-N-(4-methylbenzyl)-N-[1-(2-methylthiopyrimidin-4-yl)piperidin-4-yl]amine] | 36.7% | 45.1% | 60.8% | 41.4% | 35.8% | 28.6%
Clc1cccc(CNC2CCN(Cc3cnc(Cl)s3)CC2)c1 [Example 13, N-(3-chlorobenzyl)-N-{1-[(2-chlorothiazol-5-yl)methyl]piperidin-4-yl}amine] | 3.8% | 3.2% | 2.4% | 17.9% | 4.1% | 7.2%
